Patent publication US20100324017A1, “ACYLGUANIDINE DERIVATIVE” (priority 2007, published 2010)

Tests used:
[1] = tested on: MK-801-induced overactivity; assay: MK-801-induced overactivity in mice, kinetic momentum by infrared sensor; format: in vivo; conditions: mouse, oral, dose 0.01 mg/kg; MK-801 0.3 mg/kg i.p.; total 60 minutes, P<0.05
Method: Evaluation of Various Drugs Relative to a Drug for Increasing the Kinetic Momentum of Mice (Methane Phetamine, MK-801) (Method for Measuring a Kinetic Momentum by Discharge of an Infrared Ray)
The effect of improving the positive symptoms and the negative symptoms of schizophrenia by the compound (I) was evaluated by measuring the kinetic momentum that had been […] with administration of the compound in a model causing the symptoms by methane phetamine (which is hereinafter simply referred to as MAP) and MK-801.
Species: Male ICR mouse/number of animals (number of animals per group): 8 to 12 animals per group
The animal was left in a laboratory for 1 hour or longer to be acclimated to the environment, and the animal was taken from the feeding cage, orally administered with a compound to be tested, and then returned to the feeding cage. After 30 minutes, it was put into a cage for measurement, and the kinetic momentum of just the compound to be tested was measured. Further, after 30 minutes, the animal was taken out, and intraperitoneally administered with a drug for increasing kinetic momentum (MAP; 1 mg/kg or MK-801; 0.3 mg/kg, all dissolved in physiological saline), and its kinetic momentum was measured for a certain time (60 minutes) using a device for measuring the kinetic momentum by means of an infrared ray sensor (CompACT AMS, Muromachi Kikai Co., Ltd.). Also, the test was carried out under non-fasting.
The 60 minutes of measurements was classified into three groups: a first half 30 minutes, a second half 30 minutes, and a total 60 minutes. For a normal mouse (a mouse administered with physiological saline) and a mouse administered with the drug for increasing kinetic momentum, a Student's T test was used for evaluation in each interval. For the group administered with the compound to be tested, a solvent (vehicle) group and a Dunnett's T test were carried out and evaluated. For the evaluation, in case where there was a significant (P<0.05) difference for the total 60 minutes, it was considered to be effective.

[2] = tested on: scopolamine-induced spontaneous alternation behavior disorder; assay: Scopolamine-induced spontaneous alternation behavior disorder in mice (Y-maze); format: in vivo; conditions: mouse, oral, dose 0.003 mg/kg; scopolamine 0.5 mg/kg i.p.
Method: An Improvement Effect for Scopolamine-Induced or MK-801-Induced Spontaneous Alternation Behavior in Mice
An improvement effect of the compound (I) for cognitive impairment was evaluated by the above-described well-known test method as a model of a short-term learning disorder.
Species: Male ddY mice/number of animals (number of animals per group): 6 to 10 animals per group
A mouse was introduced into the laboratory 1 hour before starting the test. The mouse was placed at one end of an arm in a Y-maze having equal lengths of arms in three directions, and was able freely explored for 8 minutes with the number of the entries into the arms were counted. Furthermore, a spontaneous alternation behavior was defined as consecutive entries into each of the three arms, and an alternation rate was defined as the percentage of the number of time of this behavior relative to the total number of the entries, and calculated by the following equation.
Alternation rate (%)=(number of spontaneous alternation behaviors/total number of entries−2)×100.
The compound to be tested was orally administered 50 minutes before the initiation of the test, and 30 minutes later, 0.5 mg/kg of scopolamine or 0.15 mg/kg of MK-801 (in the normal group, physiological saline) was intraperitoneally administered. Furthermore, for the normal group (the group administered with physiological saline) and the control group (the group administered with 0.5 mg/kg scopolamine or 0.15 mg/kg MK-801), a solvent (vehicle) was orally administered when the compound to be tested was administered. For the normal group, physiological saline was intraperitoneally administered when scopolamine was administered.
The alternation rate (%) is expressed as an average value in each group (mean±SE). In regard to the alternation rate (%), in the case where a significant difference between the normal group and the control group (Student's T test) was found, it was considered that there was an establishment of learning disorder by the administration of scopolamine or MK-801. By carrying out the Dunnett evaluation for the group administered with the compound to be tested relative to the control group, the presence or absence of the learning disorder action of the compound to be tested was determined. In each evaluation, it was considered that there was a tendency at p<0.10, and there was a significant difference at p<0.05.

Structure (SMILES)	inhibition of MK-801-induced overactivity [1]	inhibition of scopolamine-induced spontaneous alternation behavior disorder [2]
NC(N)=NC(=O)c1ccc2c3ccccc3n(C3CCOCC3)c2c1 [Example 25]	significantly inhibited	significantly inhibited
CC(C)n1c2cc(C(=O)N=C(N)N)ccc2c2c(CO)cccc21 [Example 65]	significantly inhibited	significantly inhibited
